Measurements reported in ChEMBL document CHEMBL1201862, “PubChem BioAssay data set” (2004).
One block for each compound: values may come before it. Calls of active or inactive are those of the source.

How the values were obtained:
[1] = target: T1, Sentrin-specific protease 7 (Homo sapiens, UniProt Q9BQF6); assay type: functional;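 note: Luminescence-based dose-response confirmation of ultra-high-throughput screening hits, measuring inhibition of SENP7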
T1 sequence (Q9BQF6 whole entry): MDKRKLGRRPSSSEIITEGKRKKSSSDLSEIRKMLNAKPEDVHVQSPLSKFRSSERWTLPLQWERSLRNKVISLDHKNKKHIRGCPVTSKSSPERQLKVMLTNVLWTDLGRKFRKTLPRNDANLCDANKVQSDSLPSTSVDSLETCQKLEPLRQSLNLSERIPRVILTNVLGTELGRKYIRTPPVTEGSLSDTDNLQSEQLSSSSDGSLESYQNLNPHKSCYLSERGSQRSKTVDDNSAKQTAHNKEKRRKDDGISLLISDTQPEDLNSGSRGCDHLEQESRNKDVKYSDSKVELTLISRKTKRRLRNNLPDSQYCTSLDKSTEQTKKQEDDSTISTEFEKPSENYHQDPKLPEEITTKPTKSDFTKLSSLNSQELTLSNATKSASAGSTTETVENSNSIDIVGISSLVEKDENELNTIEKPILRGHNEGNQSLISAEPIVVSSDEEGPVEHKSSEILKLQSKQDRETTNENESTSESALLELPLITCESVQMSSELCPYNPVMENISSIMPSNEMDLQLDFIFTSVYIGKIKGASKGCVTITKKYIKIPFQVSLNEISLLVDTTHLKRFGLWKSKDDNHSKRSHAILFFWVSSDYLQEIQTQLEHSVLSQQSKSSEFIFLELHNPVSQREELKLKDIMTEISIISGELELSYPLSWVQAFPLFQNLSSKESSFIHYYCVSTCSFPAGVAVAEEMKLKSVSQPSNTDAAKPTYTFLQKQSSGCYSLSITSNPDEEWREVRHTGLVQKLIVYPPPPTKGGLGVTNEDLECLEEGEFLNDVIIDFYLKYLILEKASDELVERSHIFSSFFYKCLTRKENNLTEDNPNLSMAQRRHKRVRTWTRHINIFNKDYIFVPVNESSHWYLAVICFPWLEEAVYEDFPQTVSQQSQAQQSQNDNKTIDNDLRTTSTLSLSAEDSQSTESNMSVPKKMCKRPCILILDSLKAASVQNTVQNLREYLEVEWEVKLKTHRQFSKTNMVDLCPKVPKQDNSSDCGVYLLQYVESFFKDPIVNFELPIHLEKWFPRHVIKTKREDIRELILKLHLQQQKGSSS

[2] = target: T2, Sentrin-specific protease 8 (Homo sapiens, UniProt Q96LD8); assay type: functional;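 note: luminescence read-out of SENP8 inhibition, dose-response confirmation following an ultra-high-throughput screen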
T2 sequence (Q96LD8 whole entry): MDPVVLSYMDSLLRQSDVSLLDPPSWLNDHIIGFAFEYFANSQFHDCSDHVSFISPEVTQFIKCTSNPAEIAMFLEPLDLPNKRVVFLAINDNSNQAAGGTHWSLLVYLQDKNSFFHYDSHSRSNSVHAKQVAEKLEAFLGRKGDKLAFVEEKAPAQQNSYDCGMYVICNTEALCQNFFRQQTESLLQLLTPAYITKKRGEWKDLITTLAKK

[3] = target: T3, Sentrin-specific protease 6 (Homo sapiens, UniProt Q9GZR1); assay type: functional;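 note: Luminescence-based dose-response confirmatory assay of SENP6 inhibition, following up an ultra-high-throughput screen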
T3 sequence (Q9GZR1 whole entry): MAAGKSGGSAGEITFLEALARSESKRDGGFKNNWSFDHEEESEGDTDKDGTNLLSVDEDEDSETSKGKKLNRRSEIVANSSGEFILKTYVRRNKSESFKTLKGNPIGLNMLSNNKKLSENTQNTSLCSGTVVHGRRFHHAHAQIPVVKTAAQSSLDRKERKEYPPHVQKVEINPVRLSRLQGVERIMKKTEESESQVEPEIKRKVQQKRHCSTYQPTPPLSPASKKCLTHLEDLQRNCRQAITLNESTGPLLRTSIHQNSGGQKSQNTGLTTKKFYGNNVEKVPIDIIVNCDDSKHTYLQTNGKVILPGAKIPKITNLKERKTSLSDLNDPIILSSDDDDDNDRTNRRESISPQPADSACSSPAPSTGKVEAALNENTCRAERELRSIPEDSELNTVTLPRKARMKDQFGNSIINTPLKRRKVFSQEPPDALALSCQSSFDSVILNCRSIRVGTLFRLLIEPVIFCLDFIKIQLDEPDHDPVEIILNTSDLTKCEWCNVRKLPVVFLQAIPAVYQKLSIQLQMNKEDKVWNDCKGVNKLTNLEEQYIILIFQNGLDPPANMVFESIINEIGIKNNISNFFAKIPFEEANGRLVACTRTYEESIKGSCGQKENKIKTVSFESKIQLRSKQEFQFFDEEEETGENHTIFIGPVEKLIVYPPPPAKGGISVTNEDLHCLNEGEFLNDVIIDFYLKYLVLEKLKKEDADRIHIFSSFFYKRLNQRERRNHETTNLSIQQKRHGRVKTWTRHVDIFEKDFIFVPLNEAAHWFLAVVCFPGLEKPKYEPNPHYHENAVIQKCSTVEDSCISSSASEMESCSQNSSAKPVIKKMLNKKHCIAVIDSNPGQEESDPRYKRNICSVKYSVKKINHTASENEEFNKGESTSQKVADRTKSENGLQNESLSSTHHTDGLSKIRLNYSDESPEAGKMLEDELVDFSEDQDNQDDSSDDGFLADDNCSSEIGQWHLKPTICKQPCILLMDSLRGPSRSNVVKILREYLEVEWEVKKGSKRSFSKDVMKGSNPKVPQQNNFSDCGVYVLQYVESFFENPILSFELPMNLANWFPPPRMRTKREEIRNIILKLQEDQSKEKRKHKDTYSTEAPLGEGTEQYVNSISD

Caspase-3 = target: T4, Caspase-3 (Homo sapiens, UniProt P42574); assay type: functional;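 note: Dose-response selectivity test against caspase-3 for candidate inhibitors of sentrin-specific proteases (SENPs)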
T4 sequence (P42574 whole entry): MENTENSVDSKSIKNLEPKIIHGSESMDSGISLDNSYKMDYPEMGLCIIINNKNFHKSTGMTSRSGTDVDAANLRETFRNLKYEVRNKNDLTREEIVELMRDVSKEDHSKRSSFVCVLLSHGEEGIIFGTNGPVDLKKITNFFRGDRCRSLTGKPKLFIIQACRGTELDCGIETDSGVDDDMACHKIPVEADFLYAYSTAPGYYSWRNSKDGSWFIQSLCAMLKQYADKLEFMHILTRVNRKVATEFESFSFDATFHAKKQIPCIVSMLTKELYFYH

[4] = HEK293 cell cytotoxicity, dose response, cytotoxicity control, plate reader, cherry-picked samples (AID 743446); assay type: functional, cell-based
Paired box protein Pax-8 = Paired box protein Pax-8 (Homo sapiens, UniProt Q06710); assay: inhibitors of PAX8-driven TPO luciferase reporter, dose response, RMG-I cells, cherry-pick (AID 687027); assay type: functional, cell-based;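 note: luciferase reporter driven by Pax8 target thyroperoxidase promoter measured by SteadyGlo luminescence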
Sequence of Paired box protein Pax-8 (Q06710 whole entry): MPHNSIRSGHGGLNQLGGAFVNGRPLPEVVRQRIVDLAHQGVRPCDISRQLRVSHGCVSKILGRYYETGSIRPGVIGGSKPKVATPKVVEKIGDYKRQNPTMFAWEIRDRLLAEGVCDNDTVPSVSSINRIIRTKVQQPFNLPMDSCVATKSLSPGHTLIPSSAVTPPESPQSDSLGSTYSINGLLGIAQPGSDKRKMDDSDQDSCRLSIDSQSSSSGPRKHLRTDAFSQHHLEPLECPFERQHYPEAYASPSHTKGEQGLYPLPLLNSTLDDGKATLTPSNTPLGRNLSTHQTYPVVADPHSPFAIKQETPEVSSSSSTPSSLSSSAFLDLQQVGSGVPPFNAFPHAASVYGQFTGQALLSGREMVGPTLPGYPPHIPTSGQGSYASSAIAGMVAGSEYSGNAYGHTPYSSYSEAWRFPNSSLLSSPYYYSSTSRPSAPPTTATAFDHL

[5] = MC4R antagonists, dose response, counter-screen for LGR2 antagonist project, cell-based, plate reader, cherry pick (AID 743444); assay type: functional;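 note: transfected HEK 293 cells stimulated with alpha-MSH peptide; potency of inhibitors of the alpha-MSH evoked signal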
[6] = Luminescence Cell-Based Dose Retest to Confirm Inhibitors of Cancer Stem Cells. [Related pubchem assays (depositor defined):AID2717, AID2721]; assay type: functional; settings: Homo sapiens
[7] = A549 cell cytotoxicity, dose response, cytotoxicity control, plate reader, cherry-pick, antagonist series (AID 743412); assay type: functional, cell-based
[8] = LGR2 antagonists, dose response, cell-based, HEK293, CRE-luciferase reporter, cherry pick, set 2 (AID 743343); assay type: functional;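 note: transfected cells were stimulated with diluted bursicon conditioned medium after compound addition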
[9] = THP-1 cell cytotoxicity, dose response, cytotoxicity control for Vif-APOBEC3G degradation inhibitor project, THP-1 cells (AID 1117359); assay type: functional; settings: Human immunodeficiency virus 1, THP-1
HEK293 = assay: inhibitors of LMP1-driven NF-kB reporter, dose response, cell-based, HEK293, luciferase, cherry-pick (AID 588343); assay type: functional; settings: Homo sapiens
[10] = target: Photoreceptor-specific nuclear receptor (Homo sapiens, UniProt Q9Y5X4); assay type: functional, cell-based;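 note: CHO-S cells with Gal4-NCOR and VP16-NR2E3 two-hybrid luciferase reporter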
Sequence of Photoreceptor-specific nuclear receptor (Q9Y5X4 whole entry, the tested form may be a part): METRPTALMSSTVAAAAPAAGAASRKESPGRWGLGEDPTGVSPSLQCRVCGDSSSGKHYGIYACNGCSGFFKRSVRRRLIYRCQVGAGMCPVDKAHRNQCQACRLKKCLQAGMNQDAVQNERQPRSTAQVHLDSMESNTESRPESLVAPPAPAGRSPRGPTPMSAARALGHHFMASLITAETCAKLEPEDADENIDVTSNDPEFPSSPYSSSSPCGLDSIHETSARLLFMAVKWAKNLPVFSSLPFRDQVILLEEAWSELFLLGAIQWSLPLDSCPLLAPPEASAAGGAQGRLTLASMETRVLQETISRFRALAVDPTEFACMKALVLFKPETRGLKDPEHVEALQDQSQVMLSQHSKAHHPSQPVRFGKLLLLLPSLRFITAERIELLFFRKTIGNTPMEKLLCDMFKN

[11] = HepG2 cell cytotoxicity, dose response, cytotoxicity control, plate reader, cherry-pick, antagonist series (AID 743416); assay type: functional, cell-based
[12] = inhibitors of HIV Env-driven cell fusion, dose response, cherry-pick (AID 652057); assay type: functional, cell-based
[13] = inhibitors of clade B AD8 Env fusion, dose response, cell-based, cherry-pick (AID 652062); assay type: functional;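 note: luciferase signal from cell-cell fusion driven by HIV-1 clade B AD8 Env; potency is for inhibitors of fusion seen as a drop in luminescence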
[14] = off-target signal loss in HeLa-CEM21 co-culture – HeLa F-luc CTL cells, cherry-picked, counter-screen for HIV-1 Env fusion inhibitor project, dose response (AID 652040); assay type: functional, cell-based;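 note: potency for signal decrease marking cytotoxic or nonspecific inhibition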
[15] = CEM21 lymphoblast cell cytotoxicity, dose response, cytotoxicity control for viral fusion inhibitor project, CellTiter-Glo luminescence, cherry-picked (AID 652042); assay type: functional, cell-based;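 note: potency for signal decrease meaning cytotoxicity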
P388 = assay: cells; assay type: functional; settings: Mus musculus
P388/ADR = assay: cells; assay type: functional; settings: Mus musculus
SN12K1 = assay: cells; assay type: functional; settings: Homo sapiens
[16] = ZM109 Env clade C HIV-1 fusion inhibitors, dose response, HeLa effector, CEM target cells, luciferase, cherry-pick (AID 652058); assay type: functional, cell-based
[17] = P. falciparum Dd2 growth inhibitors, dose response, SYBR Green, cherry-picked samples (AID 1159567); assay type: functional, cell-based
[18] = HepG2 cell cytotoxicity, dose response, cytotoxicity control, cherry-picked samples (AID 1159577); assay type: functional, cell-based

IC50 [1]: 9.32 µM (active)
IC50 [3]: 41.8 µM (active)
IC50 (Caspase-3): 37.2 µM (active)
SMILES: CCCCCc1ccc(-c2ccc(OC)cc2)nc1
IC50 [2]: 80.5 µM (active)

SMILES: Cn1nnnc1Sc1ncnc2scc(-c3cccc(Br)c3)c12
AC50 [4]: 11.1 µM (active)
AC50 (Paired box protein Pax-8): 2.75 µM (active)
AC50 [5]: 6.1 µM (active)
AC50 [6]: 1.86 µM (active)
AC50 [7]: 9.25 µM (active)
AC50 [8]: 5.22 µM (active)

IC50 [1]: 5.14 µM (active)
IC50 [3]: 7.84 µM (active)
IC50 (Caspase-3): 28.8 µM (active)
SMILES: O=C(Nc1ccc(C2CC2(Cl)Cl)cc1)c1cccc([N+](=O)[O-])c1 (centres undefined)
IC50 [2]: 29.5 µM (active)

SMILES: O=C1/C(=C/c2ccco2)SC(=S)N1C1CCS(=O)(=O)C1 (centres undefined)
CC50 [9]: > 40 µM (active)

SMILES: COCCn1c(C)cc(C(=O)COc2ccc(C)nc2[N+](=O)[O-])c1C
AC50 (HEK293): 9.91 µM (active)
IC50 [10]: 5.55 µM (active)

IC50 [1]: 7.71 µM (active)
IC50 [3]: 22.4 µM (active)
IC50 (Caspase-3): 17.7 µM (active)
SMILES: O=C(NCCSc1ccccc1)c1ccc(Br)cc1
IC50 [2]: 26.8 µM (active)

SMILES: O=C(c1cc(-c2ccccc2Cl)nc2ccc(Br)cc12)N1CCN(c2ccccn2)CC1
AC50 [4]: 22.8 µM (active)
AC50 [11]: 50.3 µM (active)
AC50 [5]: 29.2 µM (active)
AC50 [7]: 34.5 µM (active)
AC50 [8]: 28.3 µM (active)

SMILES: COc1cccc(CN2CCC2(C)C(=O)Nc2cccc(Oc3ccccc3)c2)c1OC (centres undefined)
AC50 [12]: 3.47 µM (active)
AC50 [13]: 20.4 µM (active)
AC50 [14]: > 70 µM (inactive)
AC50 [15]: 61.8 µM (active)

SMILES: CCCCCCCCCCNC1CC(OC2CC(O)(C(O)CO)Cc3c(O)c4c(c(O)c32)C(=O)c2c(OC)cccc2C4=O)OC(C)C1O (centres undefined)
GI50 (P388): 0.168 µM (active)
GI50 (P388/ADR): 1.52 µM (inactive)
GI50 (SN12K1): 1.25 µM (inactive)

SMILES: COc1c2ccoc2c(S(=O)(=O)Nc2ccc(Cl)cc2)c2oc(C)cc(=O)c12
GI50 (P388): 69.3 µM (inactive)
GI50 (P388/ADR): 72.4 µM (inactive)
GI50 (SN12K1): > 100 µM (inactive)

SMILES: O=C(O)CCCCCCC[C@@H]1S[C@H]1CCCCCCO
GI50 (P388): > 100 µM (inactive)
GI50 (P388/ADR): > 100 µM (inactive)
GI50 (SN12K1): > 100 µM (inactive)

SMILES: CC(C)CC/N=c1/cc2n(-c3ccc(Cl)cc3)c3ccccc3nc-2cc1Nc1ccc(Cl)cc1
GI50 (P388): 2.82 µM (inactive)
GI50 (P388/ADR): 2.19 µM (inactive)
GI50 (SN12K1): 6.4 µM (inactive)

SMILES: Nc1nc(N)nc(-c2ccccc2NS(=O)(=O)c2ccc([N+](=O)[O-])cc2)n1
GI50 (P388): 57.1 µM (inactive)
GI50 (P388/ADR): 38.5 µM (inactive)
GI50 (SN12K1): > 56.5 µM (inactive)

SMILES: CCCCCCCCN1C(=O)[C@H](CC(=O)NCCCC)C[C@@]2(C(=O)OCC)CCCC=C12
AC50 [12]: 7.2 µM (active)
AC50 [13]: 16.3 µM (active)
AC50 [16]: 23.2 µM (active)
AC50 [14]: 66.4 µM (active)
AC50 [15]: 37.5 µM (active)

SMILES: C[C@H]1CN([C@@H](C)CO)C(=O)Cc2cc(NC(=O)Nc3ccc(F)cc3)ccc2O[C@H]1CN(C)CC1CCCCC1
AC50 [4]: 15.4 µM (active)
AC50 [11]: 16.6 µM (active)
AC50 [5]: 55.8 µM (active)
AC50 [7]: 9.61 µM (active)

IC50 [1]: 7.1 µM (active)
IC50 [3]: 25 µM (active)
IC50 (Caspase-3): 21.1 µM (active)
SMILES: COc1ccc(/C=N/N2CCN(c3ccccc3OC)CC2)cc1Br
IC50 [2]: 54.9 µM (active)

SMILES: O=S(=O)(c1ccc(F)cc1)N1CCCCN2[C@H](CO)[C@H](c3ccc(-c4ccccc4F)cc3)[C@H]2C1
AC50 [17]: 1.97 µM (active)
AC50 [18]: 11 µM (active)

SMILES: Cc1cccc(-c2ccc([C@H]3[C@H]4CN(CCC(F)(F)F)CCCCN4[C@H]3CO)cc2)c1
AC50 [17]: 1.08 µM (active)
AC50 [18]: 9.1 µM (active)

SMILES: C[C@H](CO)N1C[C@H](C)[C@@H](CN(C)Cc2ccccc2)Oc2ccc(NC(=O)Nc3ccc(F)cc3)cc2CC1=O
AC50 [17]: 4.02 µM (active)
AC50 [18]: > 39 µM (inactive)

SMILES: CCCCCCCCCCCCCCCC(=O)OCC1OC(n2ccc(N)nc2=O)C(O)C1O (centres undefined)
AC50 [12]: 0.557 µM (active)
AC50 [13]: 0.922 µM (active)
AC50 [16]: < 0.26 µM (active)
AC50 [14]: 0.44 µM (active)
AC50 [15]: 24 µM (active)
